Results published in ChEMBL document CHEMBL1201862, “PubChem BioAssay data set” (2004).
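The compound was tested at five concentrations on cells cultured in 96-well plates, with a 48-hour exposure period. GI50: concentration for 50% inhibition of growth.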 Activity calls are given as the source filed them. No stated cut-off is given here; in the data, active = GI50 up to about 1.1 µM and inactive = higher.

Key:
Assay in all cases: inhibition of tumour cell growth, NCI panel, 48 h
A549 = test system: A549
ACHN = test system: ACHN
BT-549 = test system: BT-549
CAKI-1 = test system: CAKI-1
HCC 2998 = test system: HCC 2998
HL-60 = test system: HL-60
HOP-92 = test system: HOP-92
HT-29 = test system: HT-29
IGROV-1 = test system: IGROV-1
KM12 = test system: KM12
OVCAR-8 = test system: OVCAR-8
RXF 393 = test system: RXF 393
SF-268 = test system: SF-268
SK-MEL-28 = test system: SK-MEL-28
SK-MEL-5 = test system: SK-MEL-5
SNB-75 = test system: SNB-75
SR = test system: SR
NCI/ADR-RES = test system: NCI/ADR-RES
SK-MEL-2 = test system: SK-MEL-2

Row | SMILES | GI50 (A549) | GI50 (ACHN) | GI50 (BT-549) | GI50 (CAKI-1) | GI50 (HCC 2998) | GI50 (HL-60) | GI50 (HOP-92) | GI50 (HT-29) | GI50 (IGROV-1) | GI50 (KM12) | GI50 (OVCAR-8) | GI50 (RXF 393) | GI50 (SF-268) | GI50 (SK-MEL-28) | GI50 (SK-MEL-5) | GI50 (SNB-75) | GI50 (SR) | GI50 (NCI/ADR-RES) | GI50 (SK-MEL-2)
1 | CC1(C)C2CCC1(C)C(NC(=O)CCN1CCOCC1)C2 (stereo unspecified) | > 100 µM (inactive) | > 100 µM (inactive) | > 100 µM (inactive) | > 100 µM (inactive) | > 100 µM (inactive) | > 100 µM (inactive) | > 100 µM (inactive) | > 100 µM (inactive) | > 100 µM (inactive) | > 100 µM (inactive) | > 100 µM (inactive) | > 100 µM (inactive) | > 100 µM (inactive) | > 100 µM (inactive) | > 100 µM (inactive) | > 100 µM (inactive) | > 100 µM (inactive) | – | –
2 | CCCCCCCCCCC(O)[C@H]1CCC(C2CC[C@H]([C@H](O)CCCCCCCCCCC(O)CC3=CC(C)OC3=O)O2)O1 (stereo partly specified) | 1.44 µM (inactive) | 1.24 µM (inactive) | – | 2.18 µM (inactive) | 3.59 µM (inactive) | 1.77 µM (inactive) | 2.44 µM (inactive) | 1.55 µM (inactive) | 1.66 µM (inactive) | 1.47 µM (inactive) | 1.48 µM (inactive) | 1.76 µM (inactive) | 1.58 µM (inactive) | 2.05 µM (inactive) | 0.565 µM (active) | 1.76 µM (inactive) | 1.9 µM (inactive) | 0.211 µM (active) | 1.53 µM (inactive)
3 | O=c1c2ccccc2n2c(-c3ccccc3O)nnc2n1-c1ccccc1 | > 100 µM (inactive) | > 100 µM (inactive) | – | > 100 µM (inactive) | > 100 µM (inactive) | > 100 µM (inactive) | > 100 µM (inactive) | > 100 µM (inactive) | > 100 µM (inactive) | > 100 µM (inactive) | > 100 µM (inactive) | > 100 µM (inactive) | > 100 µM (inactive) | > 100 µM (inactive) | > 100 µM (inactive) | > 100 µM (inactive) | > 100 µM (inactive) | > 100 µM (inactive) | > 100 µM (inactive)
4 | O=c1oc2cccnc2n1CCCCN1CCN(c2ccccc2)CC1 | > 100 µM (inactive) | > 100 µM (inactive) | – | > 100 µM (inactive) | > 100 µM (inactive) | > 100 µM (inactive) | > 100 µM (inactive) | > 100 µM (inactive) | > 100 µM (inactive) | – | > 100 µM (inactive) | > 100 µM (inactive) | > 100 µM (inactive) | > 100 µM (inactive) | > 100 µM (inactive) | – | > 100 µM (inactive) | > 100 µM (inactive) | > 100 µM (inactive)
5 | CC[C@]12C=CCN3CCC4(c5cc([C@@]6(C(=O)OC)CC7CN(CCc8c6[nH]c6ccccc86)C[C@@H]6CCC[C@H]76)c(OC)cc5N(C)C4[C@](O)(C(=O)OC)C1OC(C)=O)C32 (stereo partly specified) | 0.231 µM (active) | 0.807 µM (active) | – | 0.962 µM (active) | 0.29 µM (active) | 0.0585 µM (active) | 0.526 µM (active) | 0.103 µM (active) | 0.218 µM (active) | 0.0713 µM (active) | 0.185 µM (active) | 0.21 µM (active) | 0.127 µM (active) | 0.168 µM (active) | 0.0324 µM (active) | 0.0621 µM (active) | 0.0528 µM (active) | 1.15 µM (inactive) | 0.179 µM (active)
6 | O=C(ON=C1c2ccccc2C(Br)C(Br)c2ccccc21)c1cc([N+](=O)[O-])cc([N+](=O)[O-])c1 (stereo unspecified) | 30.4 µM (inactive) | 21.3 µM (inactive) | – | 20.5 µM (inactive) | 29.4 µM (inactive) | 0.158 µM (active) | 16 µM (inactive) | 16.3 µM (inactive) | 2.8 µM (inactive) | 19.4 µM (inactive) | 17.3 µM (inactive) | 19.6 µM (inactive) | 17.8 µM (inactive) | 18.9 µM (inactive) | 16.6 µM (inactive) | 13.9 µM (inactive) | 0.245 µM (active) | 19.6 µM (inactive) | 31.6 µM (inactive)
7 | CC(C)=CCN1CC(C)C(=O)Nc2cc(Cl)ccc21 (stereo unspecified) | 30.2 µM (inactive) | 25 µM (inactive) | 18.7 µM (inactive) | 18.5 µM (inactive) | 28.5 µM (inactive) | 47.8 µM (inactive) | 10.8 µM (inactive) | 19.2 µM (inactive) | 24.3 µM (inactive) | 25.2 µM (inactive) | 29.7 µM (inactive) | 28.4 µM (inactive) | 35.2 µM (inactive) | 43.3 µM (inactive) | 13.6 µM (inactive) | – | > 100 µM (inactive) | – | 16.2 µM (inactive)
8 | O=C(CSCC(=O)N/N=C/c1cccc(O)c1)N/N=C/c1cccc(O)c1 | > 100 µM (inactive) | > 100 µM (inactive) | – | > 100 µM (inactive) | > 100 µM (inactive) | > 100 µM (inactive) | > 100 µM (inactive) | > 100 µM (inactive) | > 100 µM (inactive) | > 100 µM (inactive) | > 100 µM (inactive) | > 100 µM (inactive) | > 100 µM (inactive) | > 100 µM (inactive) | > 100 µM (inactive) | > 100 µM (inactive) | > 100 µM (inactive) | > 100 µM (inactive) | > 100 µM (inactive)
9 | CN1CCN(C(=S)N(C(=O)c2ccco2)c2ccccc2)CC1 | > 100 µM (inactive) | > 100 µM (inactive) | > 100 µM (inactive) | – | > 100 µM (inactive) | > 100 µM (inactive) | > 100 µM (inactive) | > 100 µM (inactive) | > 100 µM (inactive) | > 100 µM (inactive) | > 100 µM (inactive) | > 100 µM (inactive) | > 100 µM (inactive) | > 100 µM (inactive) | > 100 µM (inactive) | > 100 µM (inactive) | > 100 µM (inactive) | – | > 100 µM (inactive)
10 | CCCCC(=O)Nc1ccc2c(C)cc(-c3ccc(-c4cc(-c5ccc(C)cc5)cc(-c5ccc(-c6cc(C)c7ccc(NC(=O)CCCC)nc7n6)cc5)n4)cc3)nc2n1 | > 100 µM (inactive) | > 100 µM (inactive) | > 100 µM (inactive) | > 100 µM (inactive) | > 100 µM (inactive) | – | 78.9 µM (inactive) | – | – | > 100 µM (inactive) | – | – | > 100 µM (inactive) | > 100 µM (inactive) | > 100 µM (inactive) | > 100 µM (inactive) | – | > 100 µM (inactive) | > 100 µM (inactive)
11 | O=c1[nH]c(=O)n(COCCO)cc1-c1ccccc1 | > 100 µM (inactive) | > 100 µM (inactive) | – | > 100 µM (inactive) | > 100 µM (inactive) | > 100 µM (inactive) | > 100 µM (inactive) | > 100 µM (inactive) | > 100 µM (inactive) | > 100 µM (inactive) | > 100 µM (inactive) | – | > 100 µM (inactive) | > 100 µM (inactive) | > 100 µM (inactive) | – | > 100 µM (inactive) | > 100 µM (inactive) | > 100 µM (inactive)
